The values below come from US5188642A, “Glyphosate-resistant plants” (priority 1990, dated 1993).

The assay concerns infected potato stem explants. Nature of the assay: Kanamycin selection of potato stem explants. It counts as cell-based, potato (Russet Burbank). The conditions noted are these: Kanamycin at 300 mg/l. The protocol:
Potato--Shoot tips of virus-free Russet Burbank are subcultured on media containing MS major and minor salts, 0.17 g/l sodium dihygrogen phosphate, 0.4 mg/l thiamine hydrochloride, 0.1 g/l inositol, 3% sucrose, 1.5 g/l Gelrite™ (Kelco, Co ) at pH 5.6. Cultures are grown at 24C in a 16 hour photoperiod. Shoots are used approximately 3-4 weeks after subculturing. Stem internodes are cut into approximately 8 mm lengths and split lengthwise, then the cut surface is smeared with Agrobacterium carrying binary vector pMON542 and helper plasmid pTiT37-SE which had been streaked on an LB agar plate and grown for a few days. Stem sections are placed cut side down on the surface of the medium containing MS salts, MS organics, 3% sucrose, 2.25 mg/l BA, […] NAA, 10 mg/l GA, 1.5 g/l Gelrite at pH 5.6. After 4 days, the stem explants are transferred to the same medium but with carbenicillin at 500 mg/l and kanamycin as the selective agent at 0 or 300 mg/l. Two weeks after inoculation, the explants are moved onto medium of the same composition but without NAA.

Turning to `NC[C@H]1O[C@H](O[C@H]2[C@H](O)[C@@H](O[C@H]3O[C@H](CO)[C@@H](O)[C@H](N)[C@H]3O)[C@H](N)C[C@@H]2N)[C@H](O)[C@@H](O)[C@@H]1O` [Kanamycin, kanamycin], the “swelling and callusing of explants” value was “sufficient to prevent swelling and callusing of the infected explants without killing the tissue”.
